Several values for one entry are separate records, joined by “and”; a condition that tells them apart may be missing. Equal entries are not always repeated. Where two headings read alike, the source gives them in different places. Blank lines part the entries; values can stand above or below the molecule they belong to.
What was measured:
[1] = tested on: Human Leukocyte Lipoxygenase; experiment: Human Leukocyte Lipoxygenase Assay (LDA-H); assay type: biochemical
Procedure: Whole blood is collected from normal volunteers and spun in a refrigerated centrifuge for four minutes at 1°-6° C. at 3800 g. The buffy coat is manually separated and washed twice with chilled 0.83% NH4 Cl and centrifuged at 1000 RPM for ten minutes at 4° C. The white cell is suspended in culture media-EMEM supplemented with 6% Agamma human serum, tricine buffer, and neomycin and recentrifuged at 1000 g to yield a pellet containing the leukocytes used for the preparation of the acetone pentane powder.
The acetone-pentane powder is prepared utilizing a modification of the procedure reported for human platelet lipoxygenase. See Siegel, et al, Arachidonate Metabolism via Lipoxygenase and 12-L-hydro-peroxy-5 Eicosatetraenoic Acid Peroxidase Sensitive to Antiinflammatory Drugs, Proc. Natl. Acad. Sci., U.S.A. 77:308, 1980 and D. P. Wallach and V. R. Brown, A Novel Preparation of Human Platlet Lipoxygenase, Biochem. Biophys. Acta. 663:361, 1981. Buffy coat prepared above is resuspended in 5-7 volumes of cold 0.1M Tris buffer, pH 7.4 containing 0.154M NaCl. The suspension is centrifuged at 13,300 g for ten minutes at 4° C. The resultant pellet is retained, resuspended in five volumes of cold acetone, recentrifuged at 13,300 g and resuspended in five volumes of cold pentane. The pentane suspension is centrifuged for ten minutes at 13,300 g to give a pellet which is dried in the cold under vacuum with periodic pulverization. The dry powder is stable for several weeks when stored at -80° C.
Enzyme stock solution is prepared in the following manner. About 15 mg of the acetone-pentane powder is suspended in 4 ml of cold tris buffer (0.1M, pH 7.4), allowed to stand for five minutes, and homogenized thoroughly. The homogenate is sonicated three times for 15 seconds each time, diluted to 7 ml with cold tris buffer (0.1M, pH 7.4), and centrifuged at 4° C. for 60 minutes at 13,300 g. The supernatent is retained and diluted to a total of 10 ml with cold tris buffer (0.1M, pH 7.4) to give the stock enzyme solution. Additional dilutions of 2-50 fold are done as necessary to locate optimal enzyme reaction rate in the assay described below.
Substrate solution is prepared at 100 μM or 1.0 μM concentrations of arachidonic acid or linoleic acid in 0.1M tris buffer, pH 9.0 containing 20% ethanol.
The enzyme reaction is followed spectrophotometrically by the appearance of a conjugated diene product at 234 nm. The reaction is monitored at 24° C. using a Gilford Model 2600 spectrophotometer. […] The effects of inhibitors on the reaction are compared with control reactions run under indentical conditions. Routinely, each compounds of the present invention is incubated with the enzyme for five minutes prior to addition of substrate to initiate the reaction. Inhibition expressed as IC50 as molar concentration of the compound required to reduce reaction rate to 50% control.

[2] = molecular target: T1, human leukocyte 5-lipoxygenase (Homo sapiens, UniProt P09917); experiment: 5-Lipoxygenase assay in human leukocytes, formation of 5-HETE (5LOA; 5LOA1 or 5LOA2 not specified); assay type: cell-based
T1 construct: endogenous in cells; host or cells: leukocytes from fresh human blood
T1 sequence (P09917 1-674): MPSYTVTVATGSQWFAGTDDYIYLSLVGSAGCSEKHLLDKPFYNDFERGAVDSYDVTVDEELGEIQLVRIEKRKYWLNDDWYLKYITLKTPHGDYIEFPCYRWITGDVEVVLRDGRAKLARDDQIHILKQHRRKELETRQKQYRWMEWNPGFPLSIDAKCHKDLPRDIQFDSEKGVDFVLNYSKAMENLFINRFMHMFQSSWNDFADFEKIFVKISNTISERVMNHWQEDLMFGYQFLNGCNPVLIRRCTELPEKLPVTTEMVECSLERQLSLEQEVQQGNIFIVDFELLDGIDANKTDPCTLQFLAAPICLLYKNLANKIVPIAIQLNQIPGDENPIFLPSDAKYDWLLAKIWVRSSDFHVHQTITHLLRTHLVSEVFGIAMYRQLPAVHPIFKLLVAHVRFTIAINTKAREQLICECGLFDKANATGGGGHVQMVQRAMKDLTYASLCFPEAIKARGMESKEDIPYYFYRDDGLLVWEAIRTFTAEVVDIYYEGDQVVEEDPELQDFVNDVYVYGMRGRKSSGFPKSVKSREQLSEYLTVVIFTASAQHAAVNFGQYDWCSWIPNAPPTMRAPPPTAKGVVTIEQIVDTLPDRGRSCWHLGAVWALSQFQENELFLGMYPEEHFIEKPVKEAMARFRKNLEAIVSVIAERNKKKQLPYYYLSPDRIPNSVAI
Description: To Evaluate the Effect of Each Compounds as a 5-Lipoxygenase Inhibitor in Comparison to Standard Reference Agents in Human Leukocytes (5LOAl)
The purpose of this assay is to evaluate the activity of each compound as an inhibitor of human leukocyte 5-lipoxygenase.
Arachidonic acid and calcium ionophore A23l87 are obtained from Sigma (St. Louis, Mo.). Silica gel plates, GF are obtained from Analtech (Newark, Del.). Arachidonic acid, (1-^14 C) and 5-HETE (^3 H), 5 (S)-hydroxy-6-trans, 8,11,14-cis eicosatetraenoic acid, are obtained from New England Nuclear (Boston, Mass.). Six percent Dextran-70 in 0.9% NaCl is obtained from Cutter Labs (Berkeley, Calif.).
Fresh blood from normal adult men who had not received any drugs for at least the previous five days is obtained by the Community Research Clinic (WL/PD) using venipuncture and collected into heparinized vacuotainer tubes. To every 100 ml of pooled blood is added 25 ml of dextran solution (6% dextran -70 in 0.9% sodium chloride containing 3% dextrose) and this is mixed gently in a plastic cylinder. The mixture is left to stand at room temperature for at least 90 minutes. The upper layer which is rich in leukocytes and platelets is then carefully decanted into 50 ml plastic tubes and centrifuged at about 100×g for eight minutes in an IEC centrifuge and rotor number 269 (about 600 rpm). The supernatant fluid is discarded and the pellet is resuspended in 10 ml of 0.87% ammonium chloride for exactly two minutes. This procedure is to lyse completely contaminating red blood cells. Leukocytes are then separated by centrifugation for ten minutes. The pellet is washed three times by suspension in 20 ml PBS (sodium chloride, 7.1 g; Na2 HPO4, 1.15 g; KH2 PO4, 0.2 g, and KCl, 0.2 g/L) and centrifuged as before. The final pellet is suspended in PBS containing 0.87 mM CaCl2. Viability of the cells is then checked using trypan blue exclusion method and is found to be over 90%.
Leukocyte cells in suspension (0.98 ml) are incubated with or without test compounds for five minutes at 37° C. in a shaking water bath. At this time a 17 μl mixture is prepared per 1 ml of cell suspension: 100 mM arachidonic acid, 1 μl, 0.05 μCi ^14 C-arachidonic acid in 5 .rho.l; 1 mM calcium ionophore A23187, 10 μl (1). This mixture is added and the incubation continued for five minutes. The reaction is stopped by adding four volumes of absolute ethanol and the mixture is kept in ice for 30 minutes. The floculated precipitate is separated by centrifugation at about 37,000×g for 20 minutes (Beckman Instruments rotor number 40). The alcohol extract is taken to dryness under a stream of nitrogen and the residue is dissolved in 100-200 μl absolute ethanol. At the time any turbidity is removed by centrifugation. An aliquot (25-50 μl) is applied onto 20×20 cm silica gel TLC plate and developed using the following solvent system: diethyl ether, petroleum ether (2040° C.), acetic acid (50:50: 1 v/v). Zones of 1 cm apart are scraped from the TLC plate and transferred to mini-vials. Methanol (0.5 ml) is added to dissolve the radioactivity adsorbed to the silica gel and scintillation fluid (H.P., Beckman), 5 ml is then added and vials are counted in a liquid scintillation counter. A sample of ^3 H-5-HETE is applied and used for the identification of the formed 5-HETE.
Total radioactivity in the test as well as the control samples are normalized and the amount of 5-HETE present is calculated accordingly.
IC50 values are defined as the concentrations of test agents which caused a 50% inhibition of the formation of 5-HETE as compared to control and are determined by inspection of the concentration-response curves.
The formation of 5-HETE in human leukocytes is considered a measure of 5-lipoxygenase activity. The protocol is described in the following.
Fresh heparinized or EDTA treated human blood is mixed with 6% dextran-3% dextrose in isotonic saline in the ratio 0.25 ml dextran solution per 1.0 ml blood. […]

LDAH, % Inhibition ([1]; 8.00 E -5 M): 0.0%
Compound: O=C(Nc1ccc(CCc2cccc(O)c2)cc1)C1CS(=O)(=O)c2ccccc2C1=O (centres unmarked) [Example 82]

5LOA, % Inhibition ([2]; 2.00 E -5 M): 42.5%
5LOA, % Inhibition ([2]; 5.00 E -6 M): 36.0%
Compound: O=C(Nc1ccc(CCc2ccc(Cl)c(Cl)c2)cc1)c1sc2ccccc2c1O [Example 144]

5LOA, % Inhibition ([2]; 2.00 E -5 M): 19.0%
5LOA, % Inhibition ([2]; 5.00 E -6 M): +7.3%
Compound: O=C(Nc1ccc(CCc2cc(C(F)(F)F)cc(C(F)(F)F)c2)cc1)c1sc2ccccc2c1O [Example 148, Benzo[b]thiophene-2-carboxamide, N-[4-[2-[3,5-bis-(trifluoromethyl)phenyl]ethyl]phenyl]-3-hydroxy]

5LOA, % Inhibition ([2]; 2.00 E -5 M): 10.1%
5LOA, % Inhibition ([2]; 4.00 E -5 M): 2.3%
5LOA, % Inhibition ([2]; 5.00 E -6 M): +7.6%
Compound: O=C(Nc1ccc(CCc2ccc(Cl)c(Cl)c2)cc1)C(=O)C1=C(O)c2ccccc2OC1 [Example 155, 2H-1-Benzopyran-3-acetamide, N-[4-[2-(3,4-dichlorophenyl)ethyl]phenyl]-4-hydroxy-α-oxo]

LDAH, % Inhibition ([1]; 2.50 E -5 M): 0.0%
Compound: CCCCOc1ccc(CCc2ccc(NC(=O)C3CS(=O)(=O)c4ccccc4C3=O)cc2)cc1 (centres unmarked) [Example 48]

LDAH, % Inhibition ([1]; 1.00 E -5 M): 0.0%
LDAH, % Inhibition ([1]; 2.50 E -5 M): 0.0%
Compound: COc1ccc(CCc2ccc(NC(=O)C(=O)C3=C(O)c4ccccc4S(=O)(=O)C3)cc2)cc1OC [Example 3, N-[4-[2-(3,4-Dimethoxyphenyl)ethyl)phenyl]-4-hydroxy-α-oxo-2H-1-benzothiopyran-3-acetamide, 1,1-dioxide]

LDAH, % Inhibition ([1]; 2.50 E -5 M): 0.0%
Compound: O=C(Nc1ccc(CCCCc2ccc(O)c(O)c2)cc1)C1CS(=O)(=O)c2ccccc2C1=O (centres unmarked) [Example 23, N-[4-[4-(3,4-Dihydroxyphenyl)butyl]phenyl]-3,4-dihydro-4-oxo-2H-1-benzothiopyran-3-carboxamide, 1,1-dioxide]

IC50 ([1]; conjugated diene at 234 nm, pH 9.0, 24 °C, read-out: LDAH, concentration for 50% inhibition (IC)): 13 µM
Compound: O=C(Nc1ccc(CCCc2ccc(O)c(O)c2)cc1)C1CS(=O)(=O)c2ccccc2C1=O (centres unmarked) [Example 22]

LDAH, % Inhibition ([1]; 8.00 E -5 M): 0.0%
Compound: COc1ccc(CCc2ccc(NC(=O)C3CS(=O)(=O)c4ccccc4C3=O)cc2)cc1NC(C)=O (centres unmarked) [Example 50, N-[4-[2-(3-Acetylamino-4-methoxy)ethyl]phenyl]-3,4-dihydro-4-oxo-2H-1-benzothiopyran-3-carboxamide, 1,1-dioxide]

5LOA, % Inhibition ([2]; 1.00 E -5 M): 15.3%
5LOA, % Inhibition ([2]; 2.00 E -5 M): 33.7%
5LOA, % Inhibition ([2]; 5.00 E -6 M): 6.3%
Compound: O=C(Nc1ccc(CCc2ccc(Cl)c(Cl)c2)cc1)C(=O)c1oc2cc3ccccc3cc2c1O [Example 113, Naphtho[2,3-b]furan-2-acetamide, N-[4-[2-(3,4-dichlorophenyl)ethyl]phenyl]-3-hydroxy-α-oxo]

5LOA, % Inhibition [2]: +1.6%
5LOA, % Inhibition ([2]; 2.00 E 0 M): 9.2%
Compound: COc1ccc(CCc2ccc(NC(=O)C3=C(O)c4ccccc4S(=O)(=O)N3C)cc2)cc1OC [Example 83, N-[4-[2-(3,4-Dimethoxyphenyl)ethyl)phenyl]-4-hydroxy-2-methyl-2H-1,2-benzothiazine-3-carboxamide, 1,1-dioxide]

LDAH, % Inhibition ([1]; 8.00 E -5 M): 0.0%
Compound: CCOC(=O)c1ccc(CCc2ccc(NC(=O)C3CS(=O)(=O)c4ccccc4C3=O)cc2)cc1 (centres unmarked) [Example 47, 4-[2-[4-[[(3,4-Dihydro-4-oxo-2H-1-benzothiopyran-3-yl)carbonyl]amino]phenyl]ethyl]benzoic acid, ethyl ester, 1,1-dioxide]

LDAH, % Inhibition ([1]; 8.00 E -5 M): 0.0%
Compound: CCCCCCc1ccc(NC(=O)C2CS(=O)(=O)c3ccccc3C2=O)cc1 (centres unmarked) [Example 58, N-(4-Hexylphenyl)-3,4-dihydro-4-oxo-2H-1-benzothiopyran-3-carboxamide, 1-1-dioxide]

LDAH, % Inhibition ([1]; 2.50 E -5 M): 0.0%
Compound: CCCCCCCCc1ccc(NC(=O)C2CS(=O)(=O)c3ccccc3C2=O)cc1 (centres unmarked) [Example 59, 3,4-Dihydro-N-(4-octylphenyl)-4-oxo-2H-1-benzothiopyran-3-carboxamide, 1,1-dioxide]

LDAH, % Inhibition ([1]; 8.00 E -5 M): 0.0%
Compound: Cc1ccc(CCc2ccc(NC(=O)C3CS(=O)(=O)c4ccccc4C3=O)cc2)cc1 (centres unmarked) [Example 45]

5LOA, % Inhibition ([2]; 1.00 E -5 M): 13.9%
5LOA, % Inhibition ([2]; 4.00 E -5 M): 18.0%
Compound: CCCCCCCCCCc1ccc(NC(=O)C(=O)C2=C(O)c3ccccc3OC2)cc1 [Example 151, N-(4-Decylphenyl)-4-hydroxy-α-oxo-2H-1-benzopyran-3-acetamide]

5LOA, % Inhibition ([2]; 1.00 E -5 M): 23.0%
5LOA, % Inhibition ([2]; 2.00 E -5 M): 38.1% and 33.9%
5LOA, % Inhibition ([2]; 4.00 E -5 M): 76.3%
5LOA, % Inhibition ([2]; 8.00 E -5 M): 79.2%
Compound: COc1ccc(CCc2ccc(NC(=O)C(=O)C3=C(O)c4ccccc4OC3)cc2)cc1OC [Example 152]
